ChEMBL document CHEMBL1201862, “PubChem BioAssay data set” (2004)
Where a name gives a salt, the structure may show the parent alone. Active and inactive are the calls of the source.

Tests used:
Assay type in all cases: functional
Protein RecA = target: T1, Protein RecA (Mycobacterium tuberculosis, UniProt P9WHJ3); test: Fluorescence Cell-Free Homogeneous Dose Retest to Identify Inhibitors of RecA-Intein Splicing Activity. [Related pubchem assays (depositor defined):AID2097, AID2223, AID489010, AID492950]
T1 sequence (P9WHJ3 whole entry): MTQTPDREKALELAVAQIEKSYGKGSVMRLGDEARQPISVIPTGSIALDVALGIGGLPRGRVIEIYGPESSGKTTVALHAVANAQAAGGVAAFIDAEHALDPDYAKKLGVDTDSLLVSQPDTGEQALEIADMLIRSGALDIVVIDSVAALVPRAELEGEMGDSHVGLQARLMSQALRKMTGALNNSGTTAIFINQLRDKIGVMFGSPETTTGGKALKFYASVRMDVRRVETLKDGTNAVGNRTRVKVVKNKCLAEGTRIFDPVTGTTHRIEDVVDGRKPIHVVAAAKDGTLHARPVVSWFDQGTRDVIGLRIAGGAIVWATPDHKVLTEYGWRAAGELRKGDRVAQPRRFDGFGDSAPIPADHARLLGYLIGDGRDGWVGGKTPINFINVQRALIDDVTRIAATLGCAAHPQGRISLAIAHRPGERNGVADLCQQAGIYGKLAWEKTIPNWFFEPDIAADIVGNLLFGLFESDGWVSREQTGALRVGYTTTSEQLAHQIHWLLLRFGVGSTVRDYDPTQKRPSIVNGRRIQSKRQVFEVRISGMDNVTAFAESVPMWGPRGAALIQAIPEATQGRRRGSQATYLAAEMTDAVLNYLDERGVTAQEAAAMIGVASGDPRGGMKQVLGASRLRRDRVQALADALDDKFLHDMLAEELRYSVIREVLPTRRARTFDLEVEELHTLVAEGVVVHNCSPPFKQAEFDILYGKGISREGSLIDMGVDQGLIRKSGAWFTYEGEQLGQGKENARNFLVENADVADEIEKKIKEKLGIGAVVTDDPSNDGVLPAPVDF

[1] = target: T2, Replicative DNA helicase DnaB (Mycobacterium tuberculosis, UniProt P9WMR3); test: DnaB intein splicing inhibitors, dose response, biochemical, cell-free fluorescence (AID 449749)
T2 sequence (P9WMR3 whole entry): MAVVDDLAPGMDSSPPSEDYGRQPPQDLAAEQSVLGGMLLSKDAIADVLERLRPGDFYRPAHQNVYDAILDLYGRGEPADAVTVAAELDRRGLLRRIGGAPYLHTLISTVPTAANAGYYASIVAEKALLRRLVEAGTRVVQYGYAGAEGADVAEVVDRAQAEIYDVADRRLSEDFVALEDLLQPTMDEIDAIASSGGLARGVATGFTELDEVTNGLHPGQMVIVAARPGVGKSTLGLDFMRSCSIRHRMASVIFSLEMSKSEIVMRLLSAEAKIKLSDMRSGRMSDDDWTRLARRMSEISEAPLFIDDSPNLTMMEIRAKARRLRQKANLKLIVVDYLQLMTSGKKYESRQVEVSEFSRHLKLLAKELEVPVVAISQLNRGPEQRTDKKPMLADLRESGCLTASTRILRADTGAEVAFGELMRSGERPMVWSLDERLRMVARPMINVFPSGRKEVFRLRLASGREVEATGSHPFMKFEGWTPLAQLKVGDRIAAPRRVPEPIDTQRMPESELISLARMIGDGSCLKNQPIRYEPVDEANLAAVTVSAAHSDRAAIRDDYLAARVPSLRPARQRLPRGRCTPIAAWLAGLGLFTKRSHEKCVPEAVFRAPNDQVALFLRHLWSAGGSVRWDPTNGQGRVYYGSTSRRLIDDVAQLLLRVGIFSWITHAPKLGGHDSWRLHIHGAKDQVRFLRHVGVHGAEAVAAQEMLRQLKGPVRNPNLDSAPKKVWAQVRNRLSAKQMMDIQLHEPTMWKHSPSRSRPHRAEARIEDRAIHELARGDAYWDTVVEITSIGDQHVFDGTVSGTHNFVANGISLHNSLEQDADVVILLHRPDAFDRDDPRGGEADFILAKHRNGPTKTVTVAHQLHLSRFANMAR

Caspase-3 = target: T3, Caspase-3 (Homo sapiens, UniProt P42574);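 also: Dose-response selectivity test against caspase-3 for candidate inhibitors of sentrin-specific proteases (SENPs)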
T3 sequence (P42574 whole entry): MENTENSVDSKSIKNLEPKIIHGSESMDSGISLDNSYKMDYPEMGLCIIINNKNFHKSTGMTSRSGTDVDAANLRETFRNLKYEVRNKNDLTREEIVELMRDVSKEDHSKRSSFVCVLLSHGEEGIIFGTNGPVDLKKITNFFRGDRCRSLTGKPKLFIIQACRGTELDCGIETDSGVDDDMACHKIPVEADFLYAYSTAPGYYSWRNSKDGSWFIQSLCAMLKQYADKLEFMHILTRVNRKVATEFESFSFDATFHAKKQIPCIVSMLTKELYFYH

[2] = target: T4, Sentrin-specific protease 8 (Homo sapiens, UniProt Q96LD8);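 also: luminescence read-out of SENP8 inhibition, dose-response confirmation following an ultra-high-throughput screen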
T4 sequence (Q96LD8 whole entry): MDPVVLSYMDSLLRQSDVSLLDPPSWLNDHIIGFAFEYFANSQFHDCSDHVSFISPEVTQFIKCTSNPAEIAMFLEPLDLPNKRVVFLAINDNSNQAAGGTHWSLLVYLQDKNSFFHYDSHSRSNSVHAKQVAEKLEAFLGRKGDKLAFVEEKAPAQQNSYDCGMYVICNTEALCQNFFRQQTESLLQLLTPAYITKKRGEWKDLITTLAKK

SMILES | EC50 (Protein RecA) | AC50 [1] | IC50 (Caspase-3) | IC50 [2]
CCCCCCCCCCOC(=O)C[n+]1c(COc2ccc(C)cc2)n(C)c2ccccc21 | 11.7 µM (active) | 3.82 µM (active) |  | 
CCC(C)n1c(NC(=O)c2ccccc2)c(C#N)c2nc3ccccc3nc21 (stereo not given) |  |  | 13.3 µM (active) | 2.24 µM (active)
CC[C@@H](CO)NC(=O)[C@@H]1C=C2c3cccc4c3c(cn4C)C[C@H]2N(C)C1 [METHYSERGIDE MALEATE] | 237 µM (active) | > 380 µM (inactive) |  | 
O=C(CCl)Oc1ccc2occ(C(=O)c3cccs3)c2c1 | 19.3 µM (active) | 16.8 µM (active) | 21.4 µM (active) | 38.2 µM (active)
